Source: PubChem BioAssay AID1963847 (Molecular Pharmacology Branch, DTP, NCI, 2024)
pIC50: −log10 of the molar value.

Tested on: 415267-285-R-J2-PDC complex spheroid viability
Experiment: Anticancer human tumor 415267-285-R-J2-PDC patient-derived breast carcinoma cell line growth inhibition [POLQ]
Details: for pIC50: curve of first compound; for viability, T/C: stronger effect = lower value
Method in brief: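 Complex spheroid viability model combining PDC tumour cells with endothelial (HUVEC) and MSC stromal cells. Novobiocin, ART-558 or RP6685 were tested singly and in combination with standard and investigational anticancer drugs. Each was titrated in half-log steps from near clinical Cmax, or from 10 microM where Cmax was unknown.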

[1] = second compound 0.0316 µM, first compound 0.0316 µM
[2] = second compound 0.0316 µM, first compound 0.1 µM
[3] = second compound 0.0316 µM, first compound 0.316 µM
[4] = second compound 0.0316 µM, first compound 1 µM
[5] = second compound 0.0316 µM, first compound 3.16 µM
[6] = second compound 0.0316 µM, first compound 10 µM
[7] = second compound 0.1 µM, first compound 0.0316 µM
[8] = second compound 0.1 µM, first compound 0.1 µM
[9] = second compound 0.1 µM, first compound 0.316 µM
[10] = second compound 0.1 µM, first compound 1 µM
[11] = second compound 0.1 µM, first compound 3.16 µM
[12] = second compound 0.1 µM, first compound 10 µM
[13] = second compound 0.316 µM, first compound 0.0316 µM
[14] = second compound 0.316 µM, first compound 0.1 µM
[15] = second compound 0.316 µM, first compound 0.316 µM
[16] = second compound 0.316 µM, first compound 1 µM
[17] = second compound 0.316 µM, first compound 3.16 µM
[18] = second compound 0.316 µM, first compound 10 µM
[19] = second compound 1 µM, first compound 0.0316 µM
[20] = second compound 1 µM, first compound 0.1 µM
[21] = second compound 1 µM, first compound 0.316 µM
[22] = second compound 1 µM, first compound 1 µM
[23] = second compound 1 µM, first compound 3.16 µM
[24] = second compound 1 µM, first compound 10 µM
[25] = second compound 3.16 µM, first compound 0.0316 µM
[26] = second compound 3.16 µM, first compound 0.1 µM
[27] = second compound 3.16 µM, first compound 0.316 µM
[28] = second compound 3.16 µM, first compound 1 µM
[29] = second compound 3.16 µM, first compound 3.16 µM
[30] = second compound 3.16 µM, first compound 10 µM
[31] = second compound 10 µM, first compound 0.0316 µM
[32] = second compound 10 µM, first compound 0.1 µM
[33] = second compound 10 µM, first compound 0.316 µM
[34] = second compound 10 µM, first compound 1 µM
[35] = second compound 10 µM, first compound 3.16 µM
[36] = second compound 10 µM, first compound 10 µM
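Note: spheroids exposed to compounds for one week before readout.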
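Throughout, for viability, T/C: luminescence used as stand-in measure of viable cells; 100% = DMSO vehicle control viability.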

Structure (SMILES): O=C(c1cc(Cc2n[nH]c(=O)c3ccccc23)ccc1F)N1CCN(C(=O)C2CC2)CC1 + Cc1cccc(N(C)C(=O)C2C(O)CCN2c2nc(C)cc(C(F)(F)F)c2C#N)c1
- pIC50 (second compound 0.0316 µM): < 5.00
- pIC50 (second compound 0.1 µM): < 5.00
- pIC50 (second compound 0.316 µM): < 5.00
- pIC50 (second compound 1 µM): < 5.00
- pIC50 (second compound 3.16 µM): < 5.00
- pIC50 (second compound 10 µM): < 5.00
- viability, T/C [1]: 87.6%
- viability, T/C [2]: 101%
- viability, T/C [3]: 102%
- viability, T/C [4]: 99.7%
- viability, T/C [5]: 103%
- viability, T/C [6]: 82.9%
- viability, T/C [7]: 94%
- viability, T/C [8]: 96.2%
- viability, T/C [9]: 96.5%
- viability, T/C [10]: 106%
- viability, T/C [11]: 91.2%
- viability, T/C [12]: 78.3%
- viability, T/C [13]: 95.3%
- viability, T/C [14]: 98.3%
- viability, T/C [15]: 99.4%
- viability, T/C [16]: 111%
- viability, T/C [17]: 95.8%
- viability, T/C [18]: 86.6%
- viability, T/C [19]: 104%
- viability, T/C [20]: 95.1%
- viability, T/C [21]: 95.8%
- viability, T/C [22]: 98.2%
- viability, T/C [23]: 92.9%
- viability, T/C [24]: 76.8%
- viability, T/C [25]: 99.3%
- viability, T/C [26]: 98.6%
- viability, T/C [27]: 88.5%
- viability, T/C [28]: 95.9%
- viability, T/C [29]: 87.7%
- viability, T/C [30]: 72.9%
- viability, T/C [31]: 100%
- viability, T/C [32]: 85.1%
- viability, T/C [33]: 87.7%
- viability, T/C [34]: 98%
- viability, T/C [35]: 90%
- viability, T/C [36]: 68%

Structure (SMILES): O=C(Nc1ccc(O)c(NS(=O)(=O)c2ccc(F)cc2)c1)c1ccc(-c2ccccc2)cc1 + Nc1ccc(C#CCN(C(=O)Cc2ncc(C(F)(F)F)cc2C(F)(F)F)c2ccc(F)cc2)nn1
- pIC50 (second compound 0.0316 µM): < 5.00
- pIC50 (second compound 0.1 µM): < 5.00
- pIC50 (second compound 0.316 µM): < 5.00
- pIC50 (second compound 1 µM): < 5.00
- pIC50 (second compound 3.16 µM): < 5.00
- pIC50 (second compound 10 µM): < 5.00
- viability, T/C [1]: 100%
- viability, T/C [2]: 97.3%
- viability, T/C [3]: 84.3%
- viability, T/C [4]: 107%
- viability, T/C [5]: 92.7%
- viability, T/C [6]: 78.2%
- viability, T/C [7]: 104%
- viability, T/C [8]: 99.1%
- viability, T/C [9]: 106%
- viability, T/C [10]: 86.1%
- viability, T/C [11]: 97.2%
- viability, T/C [12]: 61.6%
- viability, T/C [13]: 105%
- viability, T/C [14]: 102%
- viability, T/C [15]: 107%
- viability, T/C [16]: 94.9%
- viability, T/C [17]: 97.4%
- viability, T/C [18]: 71.5%
- viability, T/C [19]: 102%
- viability, T/C [20]: 90.8%
- viability, T/C [21]: 89.6%
- viability, T/C [22]: 95.3%
- viability, T/C [23]: 99.8%
- viability, T/C [24]: 66.2%
- viability, T/C [25]: 102%
- viability, T/C [26]: 103%
- viability, T/C [27]: 106%
- viability, T/C [28]: 97.8%
- viability, T/C [29]: 91.7%
- viability, T/C [30]: 75.7%
- viability, T/C [31]: 102%
- viability, T/C [32]: 99.9%
- viability, T/C [33]: 111%
- viability, T/C [34]: 89.5%
- viability, T/C [35]: 99.5%
- viability, T/C [36]: 59.5%

Structure (SMILES): CC[C@@]1(O)C(=O)OCc2c1cc1n(c2=O)Cc2cc3c(CN(C)C)c(O)ccc3nc2-1 + COC1C(OC(N)=O)C(O)C(Oc2ccc3c(O)c(NC(=O)c4ccc(O)c(CC=C(C)C)c4)c(=O)oc3c2C)OC1(C)C
- pIC50 (second compound 0.0316 µM): 7.73
- pIC50 (second compound 0.1 µM): 7.65
- pIC50 (second compound 0.316 µM): 7.66
- pIC50 (second compound 1 µM): 7.71
- pIC50 (second compound 3.16 µM): 7.71
- pIC50 (second compound 10 µM): 7.71
- viability, T/C (second compound 0.0316 µM, first compound 0.000316 µM): 101%
- viability, T/C (second compound 0.0316 µM, first compound 0.001 µM): 99%
- viability, T/C (second compound 0.0316 µM, first compound 0.00316 µM): 101%
- viability, T/C (second compound 0.0316 µM, first compound 0.01 µM): 82%
- viability, T/C [1]: 22.1%
- viability, T/C [2]: 9.06%
- viability, T/C (second compound 0.1 µM, first compound 0.000316 µM): 94%
- viability, T/C (second compound 0.1 µM, first compound 0.001 µM): 98.6%
- viability, T/C (second compound 0.1 µM, first compound 0.00316 µM): 97.4%
- viability, T/C (second compound 0.1 µM, first compound 0.01 µM): 83.3%
- viability, T/C [7]: 36.1%
- viability, T/C [8]: 8.11%
- viability, T/C (second compound 0.316 µM, first compound 0.000316 µM): 90%
- viability, T/C (second compound 0.316 µM, first compound 0.001 µM): 101%
- viability, T/C (second compound 0.316 µM, first compound 0.00316 µM): 103%
- viability, T/C (second compound 0.316 µM, first compound 0.01 µM): 107%
- viability, T/C [13]: 26.7%
- viability, T/C [14]: 10.8%
- viability, T/C (second compound 1 µM, first compound 0.000316 µM): 93.6%
- viability, T/C (second compound 1 µM, first compound 0.001 µM): 99.7%
- viability, T/C (second compound 1 µM, first compound 0.00316 µM): 88.6%
- viability, T/C (second compound 1 µM, first compound 0.01 µM): 84.6%
- viability, T/C [19]: 24.1%
- viability, T/C [20]: 8.54%
- viability, T/C (second compound 3.16 µM, first compound 0.000316 µM): 98.4%
- viability, T/C (second compound 3.16 µM, first compound 0.001 µM): 97.4%
- viability, T/C (second compound 3.16 µM, first compound 0.00316 µM): 105%
- viability, T/C (second compound 3.16 µM, first compound 0.01 µM): 94%
- viability, T/C [25]: 17.8%
- viability, T/C [26]: 7.35%
- viability, T/C (second compound 10 µM, first compound 0.000316 µM): 103%
- viability, T/C (second compound 10 µM, first compound 0.001 µM): 107%
- viability, T/C (second compound 10 µM, first compound 0.00316 µM): 107%
- viability, T/C (second compound 10 µM, first compound 0.01 µM): 85.8%
- viability, T/C [31]: 24.6%
- viability, T/C [32]: 7.99%
